Patent US12227520B2 (priority 2019, dated 2025)
Like-named read-outs stand apart in the source and are kept apart here.

Legend:
pLai RLuc reporter virus = test: microbe, parasite or virus in culture; assay type: cell-based, HIV
Outline: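 Read-out is Renilla luciferase after 72 h at 37 °C in MT-4 cells infected 2 h beforehand with pLai RLuc reporter virus; compounds diluted 1:3.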

HIV-1 (IIIB) = test: Antiviral assay in MT-4 cells (HIV MT-4 antiviral assay); assay type: cell-based; conditions: Human immunodeficiency virus 1, IIIB, MT4, 120 h, HIV-1 (IIIB) in MT-4 cells, 5 days incubation; read-out: EC50
Outline: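 Read-out is CellTiter-Glo chemiluminescence after 5-day culture at 37° C, giving protection of MT-4 cells from HIV-1 IIIB cytopathicity. Compounds tested in 1:3 dilution series in complete RPMI; controls were no drug, mock infection and 5 μM AZT.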

[1] = Cytotoxicity assay in MT-4 cells; assay type: cell-based, human; conditions: human, uninfected MT-4 cells, 5 days incubation; read-out: CC50
Outline: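 For cytotoxicity, uninfected MT-4 cells were incubated with compounds 5 days at 37 °C, with 10 μM puromycin marking base cytotoxicity. Parallel plates used HIV-1 IIIB-infected (1:250 stock dilution) or mock cells with 5 μM AZT and no-drug controls. Read-out: CellTiter-Glo chemiluminescence.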

[2] = Human immunodeficiency virus 1, 72 h, read-out: Antiviral Serum Shift RLuc 50% HS, HS/CCM (RPMI media, 10% FBS, 50% HS, 1% P/S), 72-h incubation
[3] = Human immunodeficiency virus 1, 72 h, read-out: Antiviral Serum Shift RLuc CCM, CCM (RPMI media, 10% FBS, 1% P/S), 72-h incubation

Row | SMILES | EC50 (pLai RLuc reporter virus; [2]) [nM] | EC50 (pLai RLuc reporter virus; [3]) [nM] | EC50 (HIV-1 (IIIB)) [nM] | CC50 at 5 days [1] [nM] | EC50 (pLai RLuc reporter virus; read-out: Antiviral Serum Shift RLuc 50% HS, HS/CCM (RPMI media, 10% FBS, 50% HS, 1% P/S), 72-h incubation) [nM]
1 | C[C@H]1C=CC[C@H]2CN1C(=O)c1c(O)c(=O)c(C(=O)NCc3ccc(F)cc3F)cn12 [Example 149, (3S,7S)—N-(2,4-difluorobenzyl)-12-hydroxy-3-methyl-1,11-dioxo-1,6,7,11-tetrahydro-3H-2,7-methanopyrido[1,2-a][1,4]diazonine-10-carboxamide] | 2.97 | 0.255 | 1.59 | 10000 | –
2 | C[C@H]1C[C@H]2CN(C(=O)c3c(O)c(=O)c(C(=O)NCc4c(F)cc(F)cc4F)cn32)[C@@H](C)C1 [Example 142-2, (3S,5R,7S)-12-hydroxy-3,5-dimethyl-1,11-dioxo-N-(2,4,6-trifluorobenzyl)-1,4,5,6,7,11-hexahydro-3H-2,7-methanopyrido[1,2-a][1,4]diazonine-10-carboxamide] | 2.81 | 0.363 | 1.87 | 13600 | –
3 | CC1CCCN2CC1n1cc(C(=O)NCc3ccc(F)cc3F)c(=O)c(O)c1C2=O (stereo not shown) [Example 17-1b, N-(2,4-difluorobenzyl)-12-hydroxy-6-methyl-1,11-dioxo-1,4,5,6,7,11-hexahydro-3H-2,7-methanopyrido[1,2-a][1,4]diazonine-10-carboxamide] | – | 0.26 | 1.2 | 10900 | 3.1
4 | O=C(NCc1ccc(F)cc1F)c1cn2c(c(O)c1=O)C(=O)N1Cc3ccc(Cl)cc3C[C@H]2C1 (single isomer, unassigned) [Example 128-1] | 7.61 | 0.763 | 2.15 | > 47200 | –
5 | O=C(NCc1c(F)cc(F)cc1F)c1cn2c(c(O)c1=O)C(=O)N1CCOC[C@@H]2C1 [Example 19, (7S)-12-hydroxy-1,11-dioxo-N-(2,4,6-trifluorobenzyl)-1,3,4,6,7,11-hexahydro-2,7-methanopyrido[1,2-d][1,4,7]oxadiazonine-10-carboxamide] | 4.35 | 1.21 | 4 | > 50000 | –
6 | O=C(NCc1ccc(F)cc1F)c1cn2c(c(O)c1=O)C(=O)N1CC=CC[C@@H]2C1 [Example 47-1, (7R)—N-(2,4-difluorobenzyl)-12-hydroxy-1,11-dioxo-1,6,7,11-tetrahydro-3H-2,7-methanopyrido[1,2-a][1,4]diazonine-10-carboxamide] | 25.7 | 0.682 | 4.93 | 11100 | –
7 | O=C(NCc1c(F)cc(F)cc1F)c1cn2c(c(O)c1=O)C(=O)N1CC[C@H](O)CC[C@H]2C1 [Example 83-2, (5R,8S)-5,13-dihydroxy-1,12-dioxo-N-(2,4,6-trifluorobenzyl)-1,3,4,5,6,7,8,12-octahydro-2,8-methanopyrido[1,2-a][1,4]diazecine-11-carboxamide] | 2.08 | 2.15 | 12.8 | > 50000 | –
8 | O=C(NCc1c(F)cc(F)cc1F)c1cn2c(c(O)c1=O)C(=O)N1C[C@@H]2CCC(F)(F)C1 [Example 3-2, (7S)-4,4-difluoro-12-hydroxy-1,11-dioxo-N-(2,4,6-trifluorobenzyl)-1,4,5,6,7,11-hexahydro-3H-2,7-methanopyrido[1,2-a][1,4]diazonine-10-carboxamide] | 3.86 | 1.6 | 5.4 | > 43300 | –
9 | O=C(NCc1ccc(F)cc1F)c1cn2c(c(O)c1=O)C(=O)N1CC[C@H](F)C[C@H]2C1 [Example 56-1, (5S, 7S)—N-(2,4-difluorobenzyl)-5-fluoro-12-hydroxy-1,11-dioxo-1,4,5,6,7,11-hexahydro-3H-2,7-methanopyrido[1,2-a][1,4]diazonine-10-carboxamide] | 1.91 | 0.967 | 3.99 | > 39400 | –
10 | O=C(NCc1ccc(F)c(Cl)c1F)c1cn2c(c(O)c1=O)C(=O)N1CCC=C[C@H]2C1 [Example 171, (7S)—N-(3-chloro-2,4-difluorobenzyl)-12-hydroxy-1,11-dioxo-1,4,7,11-tetrahydro-3H-2,7-methanopyrido[1,2-a][1,4]diazonine-10-carboxamide] | 8.5 | 0.387 | 0.962 | 4190 | –
11 | O=C(NCc1ccc(F)cc1F)c1cn2c(c(O)c1=O)C(=O)N1CCc3cc(F)c(F)cc3[C@H]2C1 (single isomer, unassigned) [Example 111-1] | 7.12 | 0.447 | 2.01 | 5910 | –
12 | O=C(NCc1ccc(F)c(Cl)c1F)c1cn2c(c(O)c1=O)C(=O)N1CCCC(F)(F)[C@H]2C1 (single isomer, unassigned) [Example 117-1] | 7.17 | 0.33 | 1.93 | 13300 | –
13 | O=C(NCc1c(F)cc(F)cc1F)c1cn2c(c(O)c1=O)C(=O)N1C[C@@H]2CCc2c(F)cccc21 [Example 43-1, (12S)-1-fluoro-7-hydroxy-6,8-dioxo-N-(2,4,6-trifluorobenzyl)-6,8,13,14-tetrahydro-12H-5,12-methanobenzo[e]pyrido[1,2-a][1,4]diazonine-9-carboxamide] | 147 | 4.35 | 41.5 | 8100 | –
14 | CC[C@]1(O)CCCN2C[C@H]1n1cc(C(=O)NCc3ccc(F)cc3F)c(=O)c(O)c1C2=O [Example 77, (6S,7R)—N-(2,4-difluorobenzyl)-6-ethyl-6,12-dihydroxy-1,11-dioxo-1,4,5,6,7,11-hexahydro-3H-2,7-methanopyrido[1,2-a][1,4]diazonine-10-carboxamide] | 2.13 | 0.762 | 2.17 | 15100 | –
15 | C[C@@H]1CCC[C@@H]2CN1C(=O)c1c(O)c(=O)c(C(=O)NCc3ccc(F)cc3F)cn12 [Example 52-3, (3R, 7R)—N-(2,4-difluorobenzyl)-12-hydroxy-3-methyl-1,11-dioxo-1,4,5,6,7,11-hexahydro-3H-2,7-methanopyrido[1,2-a][1,4]diazonine-10-carboxamide] | 114 | 0.589 | 3.05 | 15500 | –
16 | O=C(NCc1c(F)cc(F)cc1F)c1cn2c(c(O)c1=O)C(=O)N1CCC(F)=C[C@H]2C1 [Example 121, (7S)-5-fluoro-12-hydroxy-1,11-dioxo-N-(2,4,6-trifluorobenzyl)-1,4,7,11-tetrahydro-3H-2,7-methanopyrido[1,2-a][1,4]diazonine-10-carboxamide] | 0.505 | 0.235 | 1.76 | 24800 | –
17 | Cn1cc2c(n1)CC[C@H]1CN2C(=O)c2c(O)c(=O)c(C(=O)NCc3c(F)cc(F)cc3F)cn21 [Example 85-1, (11S)-6-hydroxy-2-methyl-5,7-dioxo-N-(2,4,6-trifluorobenzyl)-2,5,7,11,12,13-hexahydro-4,11-methanopyrazolo[4,3-e]pyrido[1,2-a][1,4]diazonine-8-carboxamide] | 1.57 | 1.06 | 5.64 | > 49900 | –
18 | O=C(NCc1ccc(F)cc1F)c1cn2c(c(O)c1=O)C(=O)N1CC[C@H](F)C[C@@H]2C1 [Example 56-3, (5S, 7R)—N-(2,4-difluorobenzyl)-5-fluoro-12-hydroxy-1,11-dioxo-1,4,5,6,7,11-hexahydro-3H-2,7-methanopyrido[1,2-a][1,4]diazonine-10-carboxamide] | 13.3 | 0.312 | 5.24 | 16100 | –
19 | O=C(NCc1c(F)cc(F)cc1F)c1cn2c(c(O)c1=O)C(=O)N1CCN(C(F)(F)F)CC2C1 (stereo not shown) [Example 141, 12-hydroxy-1,11-dioxo-N-(2,4,6-trifluorobenzyl)-5-(trifluoromethyl)-1,4,5,6,7,11-hexahydro-3H-2,7-methanopyrido[1,2-a][1,4,7]triazonine-10-carboxamide] | 199 | 29.6 | > 100 | > 50000 | –
20 | O=C(NCc1c(F)cc(F)cc1F)c1cn2c(c(O)c1=O)C(=O)N1C[C@@H]2CCCc2ccccc21 [Example 80-1, (6S)-1-hydroxy-2,15-dioxo-N-(2,4,6-trifluorobenzyl)-2,6,7,8,9,15-hexahydro-6,14-methanobenzo[e]pyrido[1,2-a][1,4]diazecine-3-carboxamide] | 0.651 | 0.348 | 2.24 | 10400 | –
21 | C[C@H]1CC[C@H](C)N2C[C@H]1n1cc(C(=O)NCc3c(F)cc(F)cc3F)c(=O)c(O)c1C2=O [Example 186, (3S,6S,7S)-12-hydroxy-3,6-dimethyl-1,11-dioxo-N-(2,4,6-trifluorobenzyl)-1,4,5,6,7,11-hexahydro-3H-2,7-methanopyrido[1,2-a][1,4]diazonine-10-carboxamide] | 60.2 | 0.306 | 0.612 | 11400 | –
22 | O=C(NCc1cccc(F)c1F)c1cn2c(c(O)c1=O)C(=O)N1CCCC[C@H]2C1 [Example 160, (7S)—N-(2,3-difluorobenzyl)-12-hydroxy-1,11-dioxo-1,4,5,6,7,11-hexahydro-3H-2,7-methanopyrido[1,2-a][1,4]diazonine-10-carboxamide] | 1.19 | 0.368 | 1.52 | 11400 | –
